Bounds are passed on as bounds.

What all share (assay type): cell-based
Experiment [1] deals with SKBR3 (PIK3CA WT) cells. Briefly: pS473 AKT assay, SKBR3 cells. As to conditions: Homo sapiens, SK-BR-3, pSer473 AKT, complete medium with 10% fetal bovine serum, 2 h treatment, read-out: SKBR3_IC50. The procedure: (§1) Example A. pS473 AKT Assay Protocol
(§2) SKBR3 (PIK3CA WT), MCF7 (PIK3CA E545K), and T47D (PIK3CA H1047R) cells were cultured using 10-cm petri dishes with recommended medium plus 10% fetal bovine serum. One day before the assay, cells were seeded in 96-well plates at a final density of 10,000 cells per well. After overnight incubation in complete medium, cells were treated with different concentrations of PI3Kα inhibitors for 2 h. Cells were then fixed using 4% paraformaldehyde at room temperature for 20 min. Aspirate 4% paraformaldehyde, and wash cells using 1× regular phosphate buffered saline 3 times, 5 min each. Aspirate any residual phosphate buffered saline and block cells using 10% goat serum containing 1% bovine serum albumin and 0.3% Triton X-100 at room temperature for 1 h. Without any additional washing, primary antibodies (rabbit anti-pSer473 AKT) were diluted using blocking buffer and added at a final volume of 50 microliter per well. Keep assay plates with primary antibodies overnight at 4° C. Wash cells using 1× regular phosphate buffered saline 3 times, 5 min each. After the final wash, incubate cells with horseradish peroxidase-conjugated secondary antibodies (goat Anti-rabbit IgG) diluted using the same blocking buffer at room temperature for 1 h. Wash cells thoroughly using 1× regular phosphate buffered saline 3 times, 5 min each. Aspirate any residual phosphate buffered saline. Add Super-Signal ELISA Pico Chemiluminescent Substrate at a final volume of 100 microliter per well. Read plates on i3x Multi-Mode Microplate Reader and calculate IC50 values using GraphPad Prism software.

Experiment [2] concerns MCF7 (PIK3CA E545K) cells. Description: pS473 AKT assay, MCF7 cells. As to conditions: Homo sapiens, pSer473 AKT, complete medium with 10% fetal bovine serum, 2 h treatment, read-out: MCF7_IC50. The procedure:
as §1, §2

In experiment [3] the test system is T47D (PIK3CA H1047R) cells. Description: pS473 AKT assay, T47D cells. As to conditions: Homo sapiens, pSer473 AKT, complete medium with 10% fetal bovine serum, 2 h treatment, read-out: T47D_IC50. How it is done:
as §1, §2

For experiment [4], the system named is T47D (PIK3CA H1047R) cells. Description: pS473 AKT assay with 2.5% FBS, T47D cells. As to conditions: Homo sapiens, pSer473 AKT, DMEM with 2.5% FBS, 2 h treatment, read-out: T47D_IC50. In outline:
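T47D (PIK3CA H1047R) cells were switched to DMEM with 2.5% FBS and exposed to compounds for 2 h. After paraformaldehyde fixation, pSer473 AKT was detected by in-cell ELISA (rabbit primary, HRP anti-rabbit secondary, chemiluminescence); IC50 values were fitted from the concentration series.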

On to `Cc1cc(C(C)Nc2ccccc2C(=O)O)c2c(c1)c(=O)n(C)c1ccnn21` (stereo not shown) [Compound I-1, 2-((1-(4,7-dimethyl-5-oxo-4,5-dihydropyrazolo[1,5-a]quinazolin-9-yl)ethyl)amino)benzoic acid], for which the IC50 in experiment [1] is more than 30000 nM; in experiment [2], more than 30000 nM; in experiment [3], 1000 to 5000 nM.

Take `Cc1cc(C(C)Nc2ccccc2C(=O)O)c2c(c1)c(=O)n(C)c1c(-c3ccccc3)cnn21` (stereo not shown) [Compound I-2, 2-((1-(4,7-dimethyl-5-oxo-3-phenyl-4,5-dihydropyrazolo[1,5-a]quinazolin-9-yl)ethyl)amino)benzoic acid]: the IC50 in experiment [1] was more than 30000 nM; in experiment [2], more than 30000 nM; in experiment [3], 1000 to 5000 nM.

Take `C=Cc1cnn2c3c(C(C)Nc4ccccc4C(=O)O)cc(C)cc3c(=O)n(C)c12` (stereo not shown) [Compound I-3, 2-((1-(4,7-dimethyl-5-oxo-3-vinyl-4,5-dihydropyrazolo[1,5-a]quinazolin-9-yl)ethyl)amino)benzoic acid]: the figures for the IC50 in experiment [1], in experiment [2] and in experiment [3] were more than 30000 nM, more than 30000 nM and 1000 to 5000 nM, respectively.

For the compound `Cc1cc(C(C)Nc2ccc(Cl)nc2-c2ncn(C)n2)c2c(c1)c(=O)n(C)c1c2cnn1C1CCCN(CCO)C1` (stereo not shown) [Example 278, 9-[1-[[6-chloro-2-(1-methyl-1,2,4-triazol-3-yl)-3-pyridyl]amino]ethyl]-3-[1-(2-hydroxyethyl)-3-piperidyl]-4,7-dimethyl-pyrazolo[3,4-c]isoquinolin-5-one], the IC50 in experiment [4] is less than 1000 nM.

Regarding `Cc1cc(C(C)Nc2ccc(Cl)nc2-c2cnn(C)c2)c2c(c1)c(=O)n(C)c1c2cnn1C1CCCN(C)C1` (stereo not shown) [Example 279, 9-[1-[[6-chloro-2-(1-methylpyrazol-4-yl)-3-pyridyl]amino]ethyl]-4,7-dimethyl-3-(1-methyl-3-piperidyl)pyrazolo[3,4-c]isoquinolin-5-one], in experiment [4], the IC50 is less than 1000 nM.

On to `Cc1cc(C(C)Nc2ccc(Cl)nc2-c2cnn(C)c2)c2c(c1)c(=O)n(C)c1c2cnn1C1CCCN(CCO)C1` (stereo not shown) [Example 280, 9-[1-[[6-chloro-2-(1-methylpyrazol-4-yl)-3-pyridyl]amino]ethyl]-3-[1-(2-hydroxyethyl)-3-piperidyl]-4,7-dimethyl-pyrazolo[3,4-c]isoquinolin-5-one], for which the IC50 in experiment [4] was less than 1000 nM.

As for `COC(=O)N1CCCC(n2ncc3c4c(C(C)Nc5ccc(Cl)nc5-c5cnn(C)c5)cc(C)cc4c(=O)n(C)c32)C1` (stereo not shown) [Example 281, methyl 3-[9-[1-[[6-chloro-2-(1-methylpyrazol-4-yl)-3-pyridyl]amino]ethyl]-4,7-dimethyl-5-oxo-pyrazolo[3,4-c]isoquinolin-3-yl]piperidine-1-carboxylate], in experiment [4], the IC50 is less than 1000 nM.

`CNC(=O)c1ccc(-c2nc(Cl)ccc2OC(C)c2cc(C)cc3c(=O)n(C)c4c(cnn4C4CCN(C)CC4)c23)cn1` (stereo not shown) [Example 282, 5-[6-Chloro-3-[1-[4,7-dimethyl-3-(1-methyl-4-piperidyl)-5-oxo-pyrazolo[3,4-c]isoquinolin-9-yl]ethoxy]-2-pyridyl]-N-methyl-pyridine-2-carboxamide]: the IC50 in experiment [4] was less than 1000 nM.

Take `CNC(=O)c1ccc(-c2nc(Cl)ccc2OC(C)c2cc(C)cc3c(=O)n(C)c4c(cnn4C4CCN(C(C)=O)CC4)c23)cn1` (stereo not shown) [Example 283, 5-[3-[1-[3-(1-Acetyl-4-piperidyl)-4,7-dimethyl-5-oxo-pyrazolo[3,4-c]isoquinolin-9-yl]ethoxy]-6-chloro-2-pyridyl]-N-methyl-pyridine-2-carboxamide]: the IC50 in experiment [4] was less than 1000 nM.

Regarding `Cc1cc(C(C)Nc2ccc(Cl)nc2-c2ncn(C)n2)c2c(c1)c(=O)n1c3c2cnn3C(CO)CC1` (stereo not shown) [Example 284, 10-(1-((6-Chloro-2-(1-methyl-1H-1,2,4-triazol-3-yl)pyridin-3-yl)amino)ethyl)-3-(hydroxymethyl)-8-methyl-4,5-dihydro-3H,6H-2,2a,5a-triazaaceanthrylen-6-one], in experiment [4], the IC50 was less than 1000 nM.

For the compound `Cc1cc(C(C)Nc2ccc(Cl)nc2-c2nnn(C)n2)c2c(c1)c(=O)n1c3c2cnn3C(CO)CC1` (stereo not shown) [Example 285, 10-(1-((6-chloro-2-(2-methyl-2H-tetrazol-5-yl)pyridin-3-yl)amino)ethyl)-3-(hydroxymethyl)-8-methyl-4,5-dihydro-3H,6H-2,2a,5a-triazaaceanthrylen-6-one], the IC50 in experiment [4] is less than 1000 nM.

With `Cc1cc(C(C)Nc2ccc(Cl)nc2-c2nnco2)c2c(c1)c(=O)n1c3c2cnn3C(CO)CC1` (stereo not shown) [Example 286, 10-(1-((6-chloro-2-(1,3,4-oxadiazol-2-yl)pyridin-3-yl)amino)ethyl)-3-(hydroxymethyl)-8-methyl-4,5-dihydro-3H,6H-2,2a,5a-triazaaceanthrylen-6-one], the IC50 in experiment [4] is less than 1000 nM.

`Cc1cc(C(C)Nc2ccc(Cl)nc2-c2cnn(C)c2)c2c(c1)c(=O)n1c3c2cnn3C(CO)CC1` (stereo not shown) [Example 287, 10-(1-((6-chloro-2-(1-methyl-1H-pyrazol-4-yl)pyridin-3-yl)amino)ethyl)-3-(hydroxymethyl)-8-methyl-4,5-dihydro-3H,6H-2,2a,5a-triazaaceanthrylen-6-one]: the IC50 in experiment [4] was less than 1000 nM.

With `Cc1cc(C(C)Nc2ccc(Cl)nc2-c2c[nH]nc2C)c2c(c1)c(=O)n1c3c2cnn3C(CO)CC1` (stereo not shown) [Example 288, 10-(1-((6-chloro-2-(3-methyl-1H-pyrazol-4-yl)pyridin-3-yl)amino)ethyl)-3-(hydroxymethyl)-8-methyl-4,5-dihydro-3H,6H-2,2a,5a-triazaaceanthrylen-6-one], the IC50 in experiment [4] was less than 1000 nM.

In the case of `Cc1cc(C(C)Nc2ccc(Cl)nc2-c2ccc(=O)n(C)c2)c2c(c1)c(=O)n1c3c2cnn3C(CO)CC1` (stereo not shown) [Example 289, 10-(1-((6-chloro-1′-methyl-6′-oxo-1′,6′-dihydro-[2,3′-bipyridin]-3-yl)amino)ethyl)-3-(hydroxymethyl)-8-methyl-4,5-dihydro-3H,6H-2,2a,5a-triazaaceanthrylen-6-one], the IC50 in experiment [4] was less than 1000 nM.

Turning to `Cc1cc(C(C)Nc2ccc(Cl)nc2-c2ncn(C)n2)c2c(c1)c(=O)n1c3c2cnn3C(CN(C)C)CC1` (stereo not shown) [Example 290, 10-(1-((6-Chloro-2-(1-methyl-1H-1,2,4-triazol-3-yl)pyridin-3-yl)amino)ethyl)-3-((dimethylamino)methyl)-8-methyl-4,5-dihydro-3H,6H-2,2a,5a-triazaaceanthrylen-6-one], the IC50 in experiment [4] is less than 1000 nM.

Values taken from patent US20250270213A1, “PI3Ka INHIBITORS” (Synnovation Therapeutics, Inc., priority 2022, published 2025).
